Measured values published in paper PMC8312610, “F4, a collagen XIX-derived peptide, inhibits tumor angiogenesis through αvβ3 and α5β1 integrin interaction” (Cell Adhesion & Migration, 2021).
Positions of bridges follow the written chain, without caps; N, C: chain ends. No end group written: not given here.

What was measured:
αvβ3 integrin [1] = experiment: Solid phase competition assay with biotinylated-F4, αvβ3; assay type: binding, human; conditions: unlabeled F4, molar ratio 1/0 to 1/125, integrin coated at 26 × 10^−7 mol/L, 90 min, room temperature, N = 2
Description: (§1) Figure 5. F4 directly binds to αvβ3 and α5β1 integrins. Direct interaction between αvβ3 or α5β1 integrin and F4 was studied using solid phase assays as described in the material and method section. The F4 peptide was biotinylated to allow its detection using the streptavidin-peroxidase complex. Different conditions were used. (a-b) The amounts of coated αvβ3 (a) or α5β1 integrin (b) were increased while biotinylated F4 peptide was kept constant. (c-d) The concentration of biotinylated F4 peptide was increased while coated amounts of αvβ3 (c) or α5β1 (d) integrins were kept constant. (e-f) Competitive assays were performed using increasing concentrations of F4 peptide while biotinylated-F4 peptide and αvβ3 (e) or α5β1 (f) integrins were kept constant. The solid phase assays were repeated twice (N = 2; n = 2)
(§2) Wells of a 96-well plate were coated with α5β1 (ref. 3230-A5-050, R&D systems) and/or αvβ3 integrin (ref. 3050-AV-050, R&D systems) at different concentrations ranging from 26 × 10^−7 mol/L to 0.1 × 10^−7 mol/L (100 μL per well in PBS). The 96-well plate was left overnight at room temperature. The coating was then blocked with TBS containing 5% nonfat dry milk, 1 mM MgCl2 and 1 mM CaCl2 for 2 h at room temperature. […] The intensity of the yellow coloration was measured at 450 nm with an LB940 spectrophotometer (Berthold Technologies). […]

α5β1 integrin = experiment: Solid phase competition assay with biotinylated-F4, α5β1; assay type: binding, human; conditions: unlabeled F4, molar ratio 1/0 to 1/125, integrin coated at 26 × 10^−7 mol/L, 90 min, room temperature, N = 2
Description: as §1, §2

HUVEC = experiment: Capillary (pseudo-)tube formation on Matrigel; assay type: cell-based, human
Method: Figure 2. NC1(XIX) and F4 inhibit endothelial cell in vitro pseudotube formation. 50,000 HUVEC were seeded in Matrigel coated well of a 48 well-plate and incubated with or without 40 μM NC1(XIX) or F4. Pseudotube formation was observed and photographed under an inverted microscope after 8 hours (a). The number of segments, of nodes and the total length of pseudotubes were quantified by the ImageJ software, using the Angiogenesis Analyzer tool (b). The values are the means ± SD (n = 8 replicates). *** p < 0.001). The experiment was repeated three times (N = 3)
Human Umbilical Vein Endothelial Cells (HUVEC) (Ref C-12253) were purchased from Promocell. They were grown in Endothelial Cell Growth Medium (ECGM) (Promocell, Ref C-22110: Basal medium supplemented with 0.02 mL/mL Fetal Calf Serum, 0.004 mL/mL Endothelial Cell Growth Supplement, 0.1 ng/mL Epidermal Growth Factor (recombinant human), 1 ng/mL Basic Fibroblast Growth Factor (recombinant human), 90 μg/mL Heparin, 1 μg/mL Hydrocortisone) at +37°C in a humid atmosphere containing 5% CO2. PromoCell Detach Kit was used for the detachment of HUVEC according to the manufacturer’s protocols (Promocell, ref C-41200).
The ability of HUVEC to form pseudo-tubes was investigated on Matrigel (Corning, ref 356237). Matrigel was loaded into 48-well plate and allowed to polymerize at +37°C for 2 h. 50,000 HUVEC suspended in Basal media supplemented with 0.004 mL/mL Endothelial Cell Growth Supplement, 90 μg/mL Heparin, 1 μg/mL Hydrocortisone with or without 40 μM NC1(XIX) or F4 were seeded into each well. Plates were incubated at +37°C in a humid atmosphere containing 5% CO2, 95% for 8 h. The formation of the capillary network was then imaged under an inverted light microscope. Quantitative evaluation of the capillary network was performed using the angiogenesis analyzer tool of ImageJ analysis software. The number of nodes, of segments and the total length of the capillary network were determined.

αvβ3 integrin [2] = experiment: Solid phase assay, direct binding to αvβ3; set-up: species or system human; conditions: solid phase assays
Description: as §1, with “The solid phase assays were repeated twice (N = 2; n = 2)” left out
Wells of a 96-well plate were coated with α5β1 (ref. 3230-A5-050, R&D systems) and/or αvβ3 integrin (ref. 3050-AV-050, R&D systems) at different concentrations ranging from 26 × 10^−7 mol/L to 0.1 × 10^−7 mol/L (100 μL per well in PBS). […] The intensity of the yellow coloration was measured at 450 nm with an LB940 spectrophotometer (Berthold Technologies).
The optimum integrin amount for the coating was determined using the above protocol and the optimum ligand concentration was sought using different dilutions of the biotinylated-F4 peptide ranging from 20.8 × 10^−4 to 0.16 × 10^−4 mol/L.

tumor cell = test system: tumor cell; set-up: method as in PMID 26621838; conditions: in vitro; ref [36]; cited from earlier work
[3] = 40 µM, 8 h, 50,000 HUVEC on Matrigel, ImageJ Angiogenesis Analyzer, p < 0.001 for NC1(XIX) and F4, n = 8, N = 3

CNPEDCLYPVSHAHQR (disulfide 1-6 (inferred)) [F4, collagen XIX-derived peptide, released by plasmin from type XIX collagen]
competition with biotinylated-F4 binding to αvβ3 (αvβ3 integrin [1]): decreased consequently | competition with biotinylated-F4 binding to α5β1 (α5β1 integrin): decreased consequently | decrease of the number of nodes vs control (HUVEC; [3]): 77% | decrease of the number of segments vs control (HUVEC; [3]): 52% | decrease of the total length of capillary tubes vs control (HUVEC; [3]): 49% | inhibition of capillary network, F4 compared with NC1(XIX) (HUVEC; 40 µM, 8 h, HUVEC on Matrigel): stronger inhibition of the number of nodes, segments and of the total length of capillary network than NC1(XIX) peptide | inhibition of pseudo-tube formation (HUVEC; 40 µM, 8 h, HUVEC on Matrigel, compared to control): strongly inhibited pseudo-tube formation | inhibition of VEGF-induced pseudo-tube formation (HUVEC; endothelial cells on Matrigel (abstract)): inhibited VEGF-induced pseudo-tube formation | anti-angiogenic effect on pseudo-tube formation, F4 compared with NC1(XIX) (discussion) (HUVEC; in vitro): even greater than the whole NC1(XIX) domain | direct binding to αvβ3 (conclusion) (αvβ3 integrin [2]): binds to both αvβ3 and α5β1 integrins in a direct manner | tumor cell migration (tumor cell): inhibits in vitro tumor cell migration
